“Also recorded” adds a separate entry of the source.
How the values were obtained:
[1] = tested on: MOG Peptide-Induced EAE; test: MOG peptide-induced EAE; type: in vivo, Mice (C57BL/6J OlaHsd); conditions: 100 and 150 mg/kg p.o. qd, day 14 to day 28 post-immunization; compared to vehicle
Experimental: Mice (C57BL/6J OlaHsd) were commercially purchased from Harlan Laboratories BV (9 weeks old, females). All the animals were allowed to adapt for 7 days prior the start of the experiment and housed in IVC racks (max. 4 mice/XJ Type cage). The animals were given access to food and water ad libitum. Mice were immunized at with subcutaneous injection on the lower back of myelin oligodendrocyte glycoprotein peptide ([…]; in house produced; 200 μg/100 emulsified in 4 mg/ml complete Freund adjuvant (CFA, Sigma). Pertussis toxin (Fluka; 200 ng per mouse) was administered intraperitoneally on day 0 and day 2. Evaluation of EAE: The mice were observed and weighed daily. They were assessed for clinical signs on a scale from 0 to 5, with graduations of 0.5 for intermediate scores. 0: no clinical signs, 1: Limp tail/complete loss of tail tonus; 2: Clear hind limb weakness; 3: Complete bilateral hind limb paralysis; 4: Fore limbs and hind limbs paralysis; 5: Death. Supplementary food and gel food were provided inside the cage once first clinical signs appeared. Animals were treated for 14 days with 100 and 150 mg/kg of BLZ945, qd, p.o. 10 ml/kg from day 14 to day 28 post-immunization. BLZ945 was prepared in 0.5% methylcellulose in water and 0.1% Tween-80.

[2] = tested on: Cuprizone-Induced Demyelination in Mice; test: Cuprizone-induced demyelination in mice, MRI (169 mg/kg); type: in vivo, Mice (C57BL/6J); conditions: 169 mg/kg p.o. qd, 2-week therapeutic treatment after 5 weeks 0.2% cuprizone
Text: Studies described below were approved by the Swiss Cantonal Veterinary Authority of Basel City, Switzerland, under the license number 2711. Mice (C57BL/6J) were commercially purchased from Charles River Laboratories, Germany or obtained from Novartis Pharma AG breeding colonies (8-9 weeks old, females). All the animals were allowed to adapt for 7 days prior the start of the experiment and housed in IVC racks (max. 4 mice/XJ Type cage). The animals were given access to food and water ad libitum. Animals were treated with cuprizone for 5 weeks. Cuprizone (Bis(cyclohexanone)oxaldihydrazone, Sigma-Aldrich) was mixed into rodent food pellets (0.2% w/w) by Provimi Kliba AG, Switzerland. Therapeutic treatment of animals after cuprizone was performed for 2 weeks on normal food with 169 mg/kg of BLZ945, qd, p.o. 10 ml/kg. BLZ945 was prepared in vehicle consisting of 0.5% methylcellulose in water and 0.1% Tween-80. Before killing 3 h after last BLZ945 dosing animals were perfused transcardially by phosphate-buffered saline (PBS), brains isolated and fixed in 4% paraformaldehyde (PFA) for 48 h at 4° C.
Measurements were performed with a Biospec 70/30 spectrometer (Bruker Medical Systems, Ettlingen, Germany) operating at 7 T. The operational software of the scanner was Paravision 5.1 (Bruker). Images were acquired from anesthetized, spontaneously breathing animals using a mouse brain circularly polarized coil (Bruker, Model 1P T20063V3; internal diameter 23 mm) for radiofrequency excitation and detection; neither cardiac nor respiratory triggering was applied. Following a short period of introduction in a box, animals were maintained in anesthesia with 1.5% isoflurane (Abbott, Cham, Switzerland) in oxygen, administered via a nose cone. During MRI signal acquisitions, animals were placed in prone position in a cradle made of Plexiglas, the body temperature was kept at 37±1° C. using a heating pad, and the respiration was monitored.
A T2-weighted, two-dimensional multislice RARE (Rapid Acquisition with Relaxation Enhancement) sequence (Hennig et al., 1986) was used for determining the anatomical orientation and for evaluating signal intensities. This was followed by a two-dimensional multislice gradient-recalled FLASH (Fast Low-Angle Shot) acquisition (Haase et al., 1986) for assessment of Magnetization Transfer Ration (MTR). As both sequences had the same anatomical parameters, the choice of the regions-of-interest for evaluations was performed on the RARE images and then transferred to the FLASH images. The parameters of the acquisitions were the following: (a) RARE sequence: effective echo time 80 ms, repetition time 3280 ms, RARE factor 16, 12 averages, field of view 20×18 mm^2, matrix size 213×192, pixel size 0.094×0.094 mm^2, slice thickness 0.5 mm, 15 adjacent slices. […]

[3] = normalized to vehicle control (normal food)

CNC(=O)c1cc(Oc2ccc3nc(N[C@@H]4CCCC[C@H]4O)sc3c2)ccn1 [BLZ945, 4-(2-((1R,2R)-2-hydroxycyclohexylamino)benzothiazol-6-yloxy)-N-methylpicolinamide]
EAE clinical score / disease progression [1]: did not alter disease progression; also recorded: No difference
EAE disease onset/incidences [1]: similar
Weight change in EAE mice [1]: similar
Magnetization transfer ratio (MTR) in corpus callosum [2]: No beneficial effect
MRI contrast in corpus callosum [2, 3]: not corpus callosum; also recorded: No beneficial effect
MRI contrast in cortex [2, 3]: reduces MRI contrast; also recorded: significant beneficial effect; also recorded: almost normalized to levels of control mice
MRI contrast in striatum [2, 3]: reduces MRI contrast; also recorded: significant beneficial effect; also recorded: almost normalized to levels of control mice

— patent publication US20200093801A1, “NEW METHODS FOR THE TREATMENT OF MULTIPLE SCLEROSIS” (Novartis AG, priority 2017, published 2020)
